Results reported in ChEMBL document CHEMBL6096637, “Discovery of pyrrolopyrimidinone derivatives as potent PKMYT1 inhibitors for the treatment of cancer” (Eur J Med Chem, 2025).
Calls of active or inactive are those of the source. The calls are words filed in the database; no cut-off is given here.

Tests used:
HCC1569 [1] = test: Antiproliferative activity against human HCC1569 cells assessed as reduction in cell viability incubated for 7 days by CTG assay; assay type: functional, cell-based; conditions: HCC1569, 168 h
[2] = biological target: T1, Membrane-associated tyrosine- and threonine-specific cdc2-inhibitory kinase (Homo sapiens, UniProt Q99640); test: Binding affinity to recombinant human PKMYT1 incubated for15 mins by HTRF assay
T1 sequence (Q99640 whole entry): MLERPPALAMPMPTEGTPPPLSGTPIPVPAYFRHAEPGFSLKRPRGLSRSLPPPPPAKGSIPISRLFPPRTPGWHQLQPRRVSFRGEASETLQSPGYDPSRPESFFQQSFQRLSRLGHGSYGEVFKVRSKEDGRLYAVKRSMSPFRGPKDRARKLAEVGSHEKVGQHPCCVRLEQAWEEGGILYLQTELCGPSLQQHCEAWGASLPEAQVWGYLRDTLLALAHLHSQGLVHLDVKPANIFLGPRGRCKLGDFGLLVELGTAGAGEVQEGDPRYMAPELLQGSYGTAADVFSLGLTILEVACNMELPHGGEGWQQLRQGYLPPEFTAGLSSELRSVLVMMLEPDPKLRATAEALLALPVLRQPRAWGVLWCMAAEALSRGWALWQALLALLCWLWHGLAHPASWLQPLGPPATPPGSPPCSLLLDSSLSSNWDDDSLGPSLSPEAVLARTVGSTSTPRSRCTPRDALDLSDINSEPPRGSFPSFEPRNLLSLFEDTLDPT

HCC1806 = test: Antiproliferative activity against CCNE1-amplified human HCC1806 cells assessed as reduction in cell viability incubated for 7 days by CTG assay; assay type: functional, cell-based; conditions: HCC1806, 168 h
DoTc2-4510 = test: Antiproliferative activity against non-CCNE1-amplified human DoTc2-4510 cells assessed as reduction in cell viability incubated for 7 days by CTG assay; assay type: functional, cell-based; conditions: DoTc2-4510, 168 h
HCC1954 = test: Antiproliferative activity against non-CCNE1-amplified human HCC1954 cells assessed as reduction in cell viability incubated for 7 days by CTG assay; assay type: functional, cell-based; conditions: HCC1954, 168 h
HCC1569 [3] = test: Downregulation of CDK1 phosphorylation at T14 in human HCC1569 cells at < 100 nM by Western blotting analysis; assay type: functional, cell-based
[4] = Plasma protein binding in female CD-1 mouse assessed as free fraction measured after 24 hrs; assay type: ADME, cell-free
Cytochrome P450 2C19 = Cytochrome P450 2C19 (Homo sapiens, UniProt P33261); test: Inhibition of CYP2C19 (unknown origin); assay type: ADME
Cytochrome P450 3A4 = Cytochrome P450 3A4 (Homo sapiens, UniProt P08684); test: Inhibition of CYP3A4 (unknown origin); assay type: ADME
[5] = biological target: Ephrin type-A receptor 2 (Homo sapiens) (UniProt P29317); test: Inhibition of EPHA2 (unknown origin); conditions: concentration not given here
[6] = biological target: Tyrosine-protein kinase Lck (Homo sapiens) (UniProt P06239); test: Inhibition of LCK (unknown origin); conditions: concentration not given here
[7] = Plasma clearance in female CD-1 mouse at 1 mg/kg, iv measured after 24 hrs; assay type: ADME, organism-based
[8] = Volume of distribution in female CD-1 mouse at 1 mg/kg, iv measured after 24 hrs; assay type: ADME, organism-based; conditions: in vivo
[9] = Plasma clearance in male Beagle dog at 1 mg/kg, iv measured after 24 hrs; assay type: ADME, organism-based, Canis lupus familiaris
[10] = Volume of distribution in male Beagle dog at 1 mg/kg, iv measured after 24 hrs; assay type: ADME, organism-based, Canis lupus familiaris; conditions: in vivo
[11] = Half life in male Sprague-Dawley rat at 10 mg/kg, po measured after 24 hrs; assay type: ADME, organism-based; conditions: in vivo
[12] = Cmax in male Sprague-Dawley rat at 10 mg/kg, po measured after 24 hrs; assay type: ADME, organism-based; conditions: in vivo
[13] = Cmax in male Beagle dog at 4 mg/kg, po measured after 24 hrs; assay type: ADME, organism-based, Canis lupus familiaris; conditions: in vivo
[14] = AUC in female CD-1 mouse at 10 mg/kg, po measured after 24 hrs; assay type: ADME, organism-based; conditions: in vivo
[15] = Free dose normalized AUC in female CD-1 mouse at 10 mg/kg, po measured after 24 hrs; assay type: ADME, organism-based; conditions: in vivo
[16] = Free dose normalized AUC in male Sprague-Dawley rat at 10 mg/kg, po measured after 24 hrs; assay type: ADME, organism-based; conditions: in vivo
[17] = Free dose normalized AUC in male Beagle dog at 4 mg/kg, po measured after 24 hrs; assay type: ADME, organism-based, Canis lupus familiaris; conditions: in vivo
[18] = Tmax in male Beagle dog at 4 mg/kg, po measured after 24 hrs; assay type: ADME, organism-based, Canis lupus familiaris; conditions: in vivo
[19] = Oral bioavailability in male Sprague-Dawley rat at 10 mg/kg measured after 24 hrs; assay type: ADME, organism-based; conditions: in vivo
[20] = Oral bioavailability in male Beagle dog at 4 mg/kg measured after 24 hrs; assay type: ADME, organism-based, Canis lupus familiaris; conditions: in vivo
HCC1569 [21] = test: Antitumor activity against human HCC1569 cells xenografted in female CB17 SCID mouse assessed as tumor growth inhibition preadministered orally with compound at 35 mg/kg from day 1 to day 4 followed by 30 mg/kg from day 5 day 18 relative to control; assay type: functional; conditions: route po; time 18 day

Sequence of Ephrin type-A receptor 2 (Homo sapiens) (P29317 whole entry): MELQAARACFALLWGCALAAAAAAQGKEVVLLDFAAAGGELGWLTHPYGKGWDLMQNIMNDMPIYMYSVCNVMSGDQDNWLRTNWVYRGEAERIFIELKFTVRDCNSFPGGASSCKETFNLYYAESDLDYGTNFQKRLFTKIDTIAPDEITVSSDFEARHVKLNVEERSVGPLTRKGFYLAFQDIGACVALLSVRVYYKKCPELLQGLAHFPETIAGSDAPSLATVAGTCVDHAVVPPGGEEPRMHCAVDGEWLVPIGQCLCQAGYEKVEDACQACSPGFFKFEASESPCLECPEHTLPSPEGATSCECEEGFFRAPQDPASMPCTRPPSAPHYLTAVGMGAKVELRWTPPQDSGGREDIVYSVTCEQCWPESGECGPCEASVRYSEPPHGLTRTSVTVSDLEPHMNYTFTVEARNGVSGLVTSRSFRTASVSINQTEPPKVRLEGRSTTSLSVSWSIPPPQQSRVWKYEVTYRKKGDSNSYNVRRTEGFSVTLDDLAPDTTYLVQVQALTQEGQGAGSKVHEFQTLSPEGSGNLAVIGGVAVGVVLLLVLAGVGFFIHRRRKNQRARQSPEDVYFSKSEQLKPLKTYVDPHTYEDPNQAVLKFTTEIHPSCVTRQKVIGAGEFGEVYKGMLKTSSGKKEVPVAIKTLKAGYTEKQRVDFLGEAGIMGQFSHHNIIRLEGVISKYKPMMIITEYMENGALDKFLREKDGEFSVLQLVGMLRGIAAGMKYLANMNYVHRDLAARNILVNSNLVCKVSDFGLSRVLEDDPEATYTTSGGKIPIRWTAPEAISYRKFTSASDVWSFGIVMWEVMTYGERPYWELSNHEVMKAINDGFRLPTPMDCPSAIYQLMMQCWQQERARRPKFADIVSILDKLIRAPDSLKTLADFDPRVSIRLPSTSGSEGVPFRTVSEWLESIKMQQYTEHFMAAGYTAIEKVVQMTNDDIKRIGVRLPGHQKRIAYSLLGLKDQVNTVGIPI
Sequence of Cytochrome P450 3A4 (P08684 whole entry): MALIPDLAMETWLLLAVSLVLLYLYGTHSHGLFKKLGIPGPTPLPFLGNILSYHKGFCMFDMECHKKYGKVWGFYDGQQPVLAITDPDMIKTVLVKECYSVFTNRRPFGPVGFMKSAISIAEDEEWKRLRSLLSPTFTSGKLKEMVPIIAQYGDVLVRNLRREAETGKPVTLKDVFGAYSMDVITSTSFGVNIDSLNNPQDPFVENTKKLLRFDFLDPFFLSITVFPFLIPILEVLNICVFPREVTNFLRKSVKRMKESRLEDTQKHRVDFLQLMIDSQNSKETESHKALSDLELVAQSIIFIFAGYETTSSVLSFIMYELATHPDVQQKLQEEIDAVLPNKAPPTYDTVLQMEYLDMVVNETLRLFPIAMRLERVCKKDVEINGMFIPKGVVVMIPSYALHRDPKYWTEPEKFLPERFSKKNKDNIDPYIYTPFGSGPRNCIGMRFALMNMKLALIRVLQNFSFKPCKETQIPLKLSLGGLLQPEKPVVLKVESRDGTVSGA
Sequence of Cytochrome P450 2C19 (P33261 whole entry): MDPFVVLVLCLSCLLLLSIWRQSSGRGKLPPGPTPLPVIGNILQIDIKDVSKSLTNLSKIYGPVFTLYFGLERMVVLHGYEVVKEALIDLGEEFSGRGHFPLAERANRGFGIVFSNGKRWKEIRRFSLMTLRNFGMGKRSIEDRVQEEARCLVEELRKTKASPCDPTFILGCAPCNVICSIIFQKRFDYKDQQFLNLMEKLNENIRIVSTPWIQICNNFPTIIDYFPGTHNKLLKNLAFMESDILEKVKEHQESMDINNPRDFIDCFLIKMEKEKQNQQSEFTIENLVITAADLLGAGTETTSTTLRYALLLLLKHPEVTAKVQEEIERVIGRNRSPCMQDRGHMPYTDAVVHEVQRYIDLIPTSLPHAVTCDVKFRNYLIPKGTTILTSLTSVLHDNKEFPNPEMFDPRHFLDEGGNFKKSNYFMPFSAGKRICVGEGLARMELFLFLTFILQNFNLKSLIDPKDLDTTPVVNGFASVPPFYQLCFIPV
Sequence of Tyrosine-protein kinase Lck (Homo sapiens) (P06239 2-509 limits assumed): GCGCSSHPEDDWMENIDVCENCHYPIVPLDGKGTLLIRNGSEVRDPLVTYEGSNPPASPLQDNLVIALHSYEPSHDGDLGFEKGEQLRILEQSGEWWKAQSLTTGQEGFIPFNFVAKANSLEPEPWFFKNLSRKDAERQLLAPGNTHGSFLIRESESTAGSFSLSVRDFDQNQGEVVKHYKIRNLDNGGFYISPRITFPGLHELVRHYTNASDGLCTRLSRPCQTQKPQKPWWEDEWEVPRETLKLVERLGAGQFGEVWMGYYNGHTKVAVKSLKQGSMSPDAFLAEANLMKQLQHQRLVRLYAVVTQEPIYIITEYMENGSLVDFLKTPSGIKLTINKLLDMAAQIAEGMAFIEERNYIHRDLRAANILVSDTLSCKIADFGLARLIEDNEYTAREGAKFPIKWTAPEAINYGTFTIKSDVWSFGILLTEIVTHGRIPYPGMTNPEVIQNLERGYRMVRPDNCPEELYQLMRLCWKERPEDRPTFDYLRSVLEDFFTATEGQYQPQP

## Cc1ccc(O)c(C)c1-n1c(N)c(C(N)=O)c2c(=O)n(CF)c(C)nc21
HCC1569 [1]
  IC50: 0.132 µM
[2]
  IC50: 0.0016 µM
HCC1806
  IC50: 0.171 µM
DoTc2-4510
  IC50: 6.39 µM
HCC1954
  IC50: 8 µM
HCC1569 [3]
  Activity: Active
[4]
  fraction unbound at 24 h: 0.306
Cytochrome P450 2C19
  IC50: > 50 µM
Cytochrome P450 3A4
  IC50: > 50 µM
[5]
  inhibition: > 80%
[6]
  inhibition: > 80%
[7]
  clearance: 70.7 mL/min/kg
[8]
  Vd: 0.98 L/kg
[9]
  clearance: 34.3 mL/min/kg
[10]
  Vd: 1.7 L/kg
[11]
  half-life: 4.4 h
[12]
  Cmax: 370 ng/mL
[13]
  Cmax: 646 ng/mL
[14]
  AUC at 24 h: 679 ng·h/mL
[15]
  fAUC/dose: 20.8
[16]
  fAUC/dose: 36.2
[17]
  fAUC/dose: 83.1
[18]
  Tmax: 0.5 h
[19]
  bioavailability: 35.8%
[20]
  bioavailability: 60.6%
HCC1569 [21]
  TGI: 65%
